Reference: patent US20070128217A1 (priority 2003, published 2007)

How the values were obtained:
[1] = system: antibodies in sera from SARS patients (sera 1a, 1b, 2, 6, 37, 62, London, SARS-yellow, SARS-green); format: binding, human; set-up: Binding of serum 6 to linear peptides of protein X1 of SARS-CoV Urbani / Binding of serum 37 to linear peptides of protein X1 of SARS-CoV Urbani / Binding of serum 6 to looped/cyclic peptide (PEPSCAN-ELISA) / Binding of serum 37 to looped/cyclic peptide (PEPSCAN-ELISA) / Binding of serum 37 to looped/cyclic peptides of protein X1 of SARS-CoV Urbani / Binding of serum 6 to linear peptides of protein X2 / Binding of serum 37 to linear peptides of protein X2 / Binding of serum 37 to looped/cyclic peptides of protein X2 of SARS-CoV Urbani / Binding of serum 6 to linear peptides of protein M of SARS-CoV Urbani / Binding of serum 37 to linear peptides of protein M of SARS-CoV Urbani / Binding of serum 6 to looped/cyclic peptides of protein M of SARS-CoV Urbani / Binding of serum 37 to looped/cyclic peptides of protein M of SARS-CoV Urbani / Binding of serum 6 to linear peptides of protein X3 of SARS-CoV Urbani / Binding of serum 37 to linear peptides of protein X3 of SARS-CoV Urbani / Binding of serum 37 to looped/cyclic peptides of protein X3 of SARS-CoV Urbani / Binding of serum 6 to linear peptides of protein X4 of SARS-CoV Urbani / Binding of serum 37 to linear peptides of protein X4 of SARS-CoV Urbani / Binding of serum 37 to looped/cyclic peptides of protein X4 of SARS-CoV Urbani / Binding of serum 6 to linear peptides of protein X5 of SARS-CoV Urbani / Binding of serum 37 to linear peptides of protein X5 of SARS-CoV Urbani / Binding of serum 37 to looped/cyclic peptides of protein X5 of SARS-CoV Urbani / Binding of serum 6 to linear peptides of protein N of SARS-CoV Urbani / Binding of serum 37 to linear peptides of protein N of SARS-CoV Urbani / Binding of serum 6 to linear peptide (PEPSCAN-ELISA) / Binding of serum 1a to looped/cyclic peptides of protein N of SARS-CoV Urbani / Binding of serum 1b to looped/cyclic peptides of protein N of SARS-CoV Urbani / Binding of serum 2 to looped/cyclic peptides of protein N of SARS-CoV Urbani / Binding of serum 6 to looped/cyclic peptides of protein N of SARS-CoV Urbani / Binding of serum 37 to looped/cyclic peptides of protein N of SARS-CoV Urbani / Binding of serum 62 to looped/cyclic peptides of protein N of SARS-CoV Urbani / Binding of serum London to looped/cyclic peptides of protein N of SARS-CoV Urbani / Binding of serum SARS-green to looped/cyclic peptides of protein N of SARS-CoV Urbani: unit not given here
[2] = system: control sera (pooled serum of ten healthy LUMC hospital workers; commercial negative donor pooled serum from the Dutch bloodbank); format: binding, human
[3] = system: rabbit serum obtained by immunizing a rabbit with the SARS-CoV strain Frankfurt 1; format: binding; set-up: Binding of a rabbit serum to linear peptides / Binding of a rabbit serum to looped peptides / Rabbit serum linear peptides / Rabbit serum looped peptides / Binding of a rabbit serum to linear peptides of protein N of SARS-CoV Urbani (Rabbit serum linear peptides) / Binding of a rabbit serum to looped/cyclic peptides of protein N of SARS-CoV Urbani (Rabbit serum looped peptides): unit not given here

In the case of DFQVTIAEILIIIMR, the “Binding of serum 1a to linear peptides of protein X3 of SARS-CoV Urbani” value [1] is reported as 0.7, the “Binding of serum 1a to looped/cyclic peptides of protein X3 of SARS-CoV Urbani” value [1] is reported as 0.7 and the “Binding of serum 1b to linear peptides of protein X3 of SARS-CoV Urbani” value [1] is reported as 0.5. The “Binding of serum 1b to looped/cyclic peptides of protein X3 of SARS-CoV Urbani” value [1] was 0.4, the “Binding of serum 2 to linear peptides of protein X3 of SARS-CoV Urbani” value [1] was 0.6 and the “Binding of serum 2 to looped/cyclic peptides of protein X3 of SARS-CoV Urbani” value [1] was 0.7. The “Binding of serum 6 to linear peptides of protein X3 of SARS-CoV Urbani” value [1] was 0.5, the “Binding of serum 6 to looped/cyclic peptides of protein X3 of SARS-CoV Urbani” value [1] was 0.4 and the “Binding of serum 37 to linear peptides of protein X3 of SARS-CoV Urbani” value [1] was 0.6. The “Binding of serum 37 to looped/cyclic peptides of protein X3 of SARS-CoV Urbani” value [1] was 0.7, the “Binding of serum 62 to linear peptides of protein X3 of SARS-CoV Urbani” value [1] was 0.6 and the “Binding of serum 62 to looped/cyclic peptides of protein X3 of SARS-CoV Urbani” value [1] was 0.5. For the same sequence, the “Binding of serum London to linear peptides of protein X3 of SARS-CoV Urbani” value [1] was 0.6, the “Binding of serum London to looped/cyclic peptides of protein X3 of SARS-CoV Urbani” value [1] was 0.2 and the “Binding of serum SARS-green to linear peptides of protein X3 of SARS-CoV Urbani” value [1] was 0.4. The “Binding of serum SARS-green to looped/cyclic peptides of protein X3 of SARS-CoV Urbani” value [1] was 0.2, the “Binding of serum SARS-yellow to linear peptides of protein X3 of SARS-CoV Urbani” value [1] was 0.5 and the “Binding of serum SARS-yellow to looped/cyclic peptides of protein X3 of SARS-CoV Urbani” value [1] was 0.7. The “Binding of Control Serum Blood-Bank to Looped peptides of the protein X3 of SARS-CoV Urbani” value [2] was 0.8, the “Binding of Control serum Blood-bank to linear peptides of the protein X3 of SARS-CoV Urbani” value [2] was 0.8 and the “Binding of Control serum LUMC to linear peptides of the protein X3 of SARS-CoV Urbani” value [2] was 0.6. The “Binding of Control serum LUMC to looped peptides of the protein X3 of SARS-CoV Urbani” value [2] was 0.7, the “Rabbit serum linear peptides” value [3] was 0.3 and the “Rabbit serum looped peptides” value [3] was 0.3.
In the case of TMTTVYHITVSQIQL, the “Binding of serum 1a to linear peptides of protein X2” value [1] is reported as 0.6, the “Binding of serum 1a to looped/cyclic peptides of protein X2 of SARS-CoV Urbani” value [1] is reported as 0.4 and the “Binding of serum 1b to linear peptides of protein X2” value [1] is reported as 0.2. The “Binding of serum 1b to looped/cyclic peptides of protein X2 of SARS-CoV Urbani” value [1] was 0.4, the “Binding of serum 2 to linear peptides of protein X2” value [1] was 0.4 and the “Binding of serum 2 to looped/cyclic peptides of protein X2 of SARS-CoV Urbani” value [1] was 0.3. The “Binding of serum 6 to linear peptides of protein X2” value [1] was 0.5, the “Binding of serum 6 to looped/cyclic peptides of protein X2 of SARS-CoV Urbani” value [1] was 0.2 and the “Binding of serum 37 to linear peptides of protein X2” value [1] was 0.7. For the same sequence, the “Binding of serum 37 to looped/cyclic peptides of protein X2 of SARS-CoV Urbani” value [1] was 0.4, the “Binding of serum 62 to linear peptides of protein X2” value [1] was 0.3 and the “Binding of serum 62 to looped/cyclic peptides of protein X2 of SARS-CoV Urbani” value [1] was 0.5. For the same sequence, the “Binding of serum London to linear peptides of protein X2” value [1] was 0.4, the “Binding of serum London to looped/cyclic peptides of protein X2 of SARS-CoV Urbani” value [1] was 0.2 and the “Binding of serum SARS-green to linear peptides of protein X2” value [1] was 0.2. The “Binding of serum SARS-green to looped/cyclic peptides of protein X2 of SARS-CoV Urbani” value [1] was 0.3, the “Binding of serum SARS-yellow to linear peptides of protein X2” value [1] was 0.7 and the “Binding of serum SARS-yellow to looped/cyclic peptides of protein X2 of SARS-CoV Urbani” value [1] was 0.3. For the same sequence, the “Binding of Control Serum Blood-Bank to Looped peptides” value [2] was 0.6, the “Binding of Control serum Blood-bank to linear peptides” value [2] was 0.6 and the “Binding of Control serum LUMC to linear peptides” value [2] was 0.8. For the same sequence, the “Binding of Control serum LUMC to looped peptides” value [2] was 0.5, the “Binding of a rabbit serum to linear peptides” value [3] was 0.7 and the “Binding of a rabbit serum to looped peptides” value [3] was 0.4.
